Data taken from US9045490B2, “Use of parthenolide derivatives as antileukemic and cytotoxic agents” (University of Kentucky, priority 2003, dated 2015).

Key:
[1] = tested on: primary acute myelogenous leukemia (AML) cells; assay: Assay for antileukemic activity (Annexin V/7-AAD apoptosis analysis by flow cytometry); format: cell-based; conditions: 24 hours of culture
Procedure: For apoptosis analysis, one million primary acute myelogenous leukemia (AML) cells were washed with cold PBS and resuspended in 200 microliters of Annexin binding buffer (10 mM HEPES/NaOH pH 7.4; 140 mM NaCl; 2.5 mM CaCl2). Annexin V-FITC (Pharmingen) and 0.25 mg/mL 7-AAD (7-aminoactinomycin D, Molecular Probes, CA) were added and the tubes were incubated at room temperature in the dark for 15 minutes. Cells were then diluted with 200 microliters of Annexin binding buffer and analyzed immediately by flow cytometry. Viable cells were identified as failing to label with Annexin V or 7-AAD. Cells beginning to die label with Annexin V, and as membrane integrity is lost, will also label with 7-AAD. […] Data are normalized to untreated control specimens. The data are in Table 1 for aminoparthenolide derivatives and Table 2 for the salts of some aminoparthenolides.

[2] = tested on: breast cancer cell line 436; assay: Clonogenic assay; format: cell-based; conditions: 436 cells, 2 μm concentration (parthenolide: similar dosage ranges)
[3] = tested on: normal hematopoietic stem cells; assay: Human-mouse xenograft: NOD/SCID engraftment of normal donor cells treated in vitro; format: in vivo; conditions: 7.5 micromolar in vitro for 12-18 hours, bone marrow analysed after 6-8 weeks (CD45)
Procedure: (§1) To assess the effect of parthenolide on primary human stem cell populations, experiments were conducted using transplantation into immune deficient NOD/SCID mice. […] For each experiment, cryopreserved mononuclear cell specimens from normal or AML donors were thawed, and treated in vitro with 7.5 micromolar parthenolide for 12-18 hours. Following culture, 5-10 million cells/animal were injected intravenously into sublethally irradiated (300 Rad) NOD/SCID mice. After 6-8 weeks, animals were sacrificed and bone marrow was analyzed for the presence of human cells using flow cytometry as previously described (Guzman et al., Proc Natl Acad Sci USA 2002; 99: 16220-162253). Human specific antibodies for CD45 were used to assess the level of total engraftment.

[4] = tested on: AML cells (AML stem cell compartment); assay: Human-mouse xenograft: NOD/SCID engraftment of AML cells treated in vitro; format: in vivo, human cells in NOD/SCID mice; conditions: 7.5 micromolar in vitro for 12-18 hours, bone marrow analysed after 6-8 weeks (CD45)
Procedure: as §1

[5] = tested on: breast cancer cell line mdl-231; assay: Clonogenic assay; format: cell-based; conditions: mdl-231, 2 μm concentration (parthenolide: similar dosage ranges)
[6] = Oral bioavailability in mice: plasma level by LC-MS; format: in vivo; conditions: mouse, 40 mg/kg oral, LC-MS, average of 5 mice, read-out: plasma level one hour after oral gavage
Procedure: Preliminary in vivo work was conducted to determine the bioavailability and toxicity of this agent in mice.

[7] = tested on: radiation sensitive cell line A549; assay: Radiation sensitisation by pretreatment, survival fraction; format: cell-based; conditions: A549, 2.5 micromolar pretreatment
Excerpt: The radiation sensitive cell line A549 was pretreated with parthenolide concentrations ranging from 0 to 2.5 micromolar. The cells were then subjected to ionizing radiation doses ranging from 0-6Gy and survival fraction of the cells determined. […] Cells not receiving pre-treatment with parthenolide had greater than 50% survival fraction at the highest radiation dose of 6Gy and over 90% survival at 2Gy.

[8] = tested on: Healthy human bone marrow cells; assay: Cytotoxicity to healthy bone marrow cells (same Annexin V/7-AAD assay); format: cell-based; conditions: 10 μM
Procedure: For apoptosis analysis, one million primary acute myelogenous leukemia (AML) cells were washed with cold PBS and resuspended in 200 microliters of Annexin binding buffer (10 mM HEPES/NaOH pH 7.4; 140 mM NaCl; 2.5 mM CaCl2). Annexin V-FITC (Pharmingen) and 0.25 mg/mL 7-AAD (7-aminoactinomycin D, Molecular Probes, CA) were added and the tubes were incubated at room temperature in the dark for 15 minutes. Cells were then diluted with 200 microliters of Annexin binding buffer and analyzed immediately by flow cytometry. Viable cells were identified as failing to label with Annexin V or 7-AAD. Cells beginning to die label with Annexin V, and as membrane integrity is lost, will also label with 7-AAD. For each parthenolide derivative, the percentage of viable cells was determined after 24 hours of culture at a 10 micromolar concentration. Data are normalized to untreated control specimens. The data are in Table 1 for aminoparthenolide derivatives and Table 2 for the salts of some aminoparthenolides.
Healthy human bone marrow cells were used in the above assay to test the cytotoxicity of parthenolide. Eighty-five percent of the normal cells survived 10 μM of parthenolide. All the aminoparthenolides evaluated afforded results similar to parthenolide, i.e. the survival rate of healthy human bone marrow cells was over 85% at a concentration of 10 μM.

[9] = tested on: breast cancer cell line hbl-100; assay: Clonogenic assay; format: cell-based; conditions: hbl-100, 2 μm concentration (parthenolide: similar dosage ranges)
[10] = tested on: lung cancer cell line H522; assay: MTS-PMS cellular proliferation assay; format: cell-based; conditions: Homo sapiens, NCI-H522
Procedure: (§2) A 96-well U-bottomed plate (Becton Dickinson Labware, Franklin Lakes, N.J.) at a concentration of 5,000 cells per 50 microliters […] of media was incubated in 5% CO2 at 37° C. for 24 hours. Varying compound concentrations in […] of media were added to the media 24 hours later. Colorimetric readings were obtained using the MTS/PMS system and an ELISA plate reader, after 48 hours of exposure to DMAPT. The readings obtained for each concentration tested were from an average of eight wells. Each experiment was expressed as a percentage of the solvent control and completed at least three times with consistent results. The results presented are an average of three experiments. The hormone refractory prostate cancer cell line CWR22Rv1 was treated with increasing concentrations of parthenolide and DMAPT. for three hours Both parthenolide and DMAPT reduced cellular proliferation by 50% at 5 μm in the CWR22 MTS-PMS assay. Cellular proliferation was also measured in the MTS-PMS assay using four lung cancer cell lines treated with parthenolide and derivatives PIPT ((11S,11,13-dihydro,13-(piperidin-1-yl)parthenolide), 4MEPT (11S,11,13-dihydro,13-(4-methylpiperidin-1-yl)parthenolide) and MAPT (11S,11,13-dihydro,13-dimethylaminoparthenolide). Parthenolide and its derivatives inhibited cellular proliferation in a dose dependent manner between 2 and 10 μM with 70% inhibition at 10 μM in A549, 50% in H460, 40% in H-23 and 40% in H522 (FIGS. 2-5).

[11] = tested on: lung cancer cell line A549; assay: MTS-PMS cellular proliferation assay; format: cell-based; conditions: Homo sapiens
Procedure: as §2

[12] = tested on: lung cancer cell line H-23; assay: MTS-PMS cellular proliferation assay; format: cell-based
Procedure: as §2

[13] = tested on: hormone refractory prostate cancer cell line CWR22Rv1; assay: MTS-PMS cellular proliferation assay; format: cell-based; conditions: at 5 μm, CWR22 MTS-PMS assay
Procedure: as §2

[14] = tested on: lung cancer cell line H460; assay: MTS-PMS cellular proliferation assay; format: cell-based; conditions: Homo sapiens, NCI-H460
Procedure: as §2

[15] = 10 μM, normalized to untreated control

| Compound | Antileukemic activity [1, 15] | further results |
| --- | --- | --- |
| C/C1=C\CC[C@@]2(C)O[C@H]2[C@H]2OC(=O)[C@H](CN3CCCCC3)[C@@H]2CC1 [PipPT, 11S,11,13-Dihydro,13-(piperidin-1-yl)parthenolide] |  | Antileukemic activity ([1]; 2.5 μM): 2.5 μM, 71%; Antileukemic activity ([1]; 5 μM): v5 μM, 91% |
| C=C1CCC2C(CN(CC)CC)C(=O)OC2C2C(=C)CCC12 (centres unmarked) [11H, 13-(N,N-Diethylamino)-dehydrocostuslactone] | 10 μM, 5% |  |
| C#CCNCC1C(=O)OC2C1CCC(C)=CCCC1(C)OC21 (centres unmarked) [11S,11,13-Dihydro,13-propargylaminoparthenolide] | 10 μM, 7% |  |
| 11S,11,13-dihydro,13-(piperidin-1-yl)parthenolide hydrochloride | 10 μM, 88% |  |
| 11S,11,13-Dihydro,13-(pyrrolidin-1-yl)parthenolide [PyrPT] | 10 μM, 85% | Antileukemic activity ([1]; 5 μM): 5 μM, 23%; Antileukemic activity ([1]; 20 μM): 20 μM, 95% |
| CC1=CCCC2(C)OC2C2OC(=O)C(CN3CCCCCC3)C2CC1 (centres unmarked) [HomoPipPT, 11S,11,13-Dihydro,13-(homopiperidin-1-yl)parthenolide] | 10 μM, 40% |  |
| 11S,11,13-Dihydro,13-diethylaminoparthenolide [DEAPT] | 10 μM, 60% |  |
| 11S,11,13-Dihydro,13-(morpholin-1-yl)parthenolide [MorPT] |  | Antileukemic activity ([1]; 20 μM): 20 μM, 20% |
| CC1=CCCC2(C)OC2C2OC(=O)C(CN3CCCCCCC3)C2CC1 (centres unmarked) [HeptaMePipt, 11S,11,13-Dihydro,13-(heptamethyleneimin-1-yl)parthenolide] | 10 μM, 10% |  |
| C=C1C(=O)O[C@@H]2[C@H]3O[C@]3(C)CC/C=C(\C)CC[C@@H]12 [Parthenolide] | 10 μM, 84% | inhibition of proliferation [2]: reduced proliferation; level of engraftment of treated normal cells in NOD/SCID mice [3]: no reduction in engraftment; level of engraftment of treated AML cells in NOD/SCID mice [4]: dramatically reduced; inhibition of proliferation [5]: reduced proliferation; concentration at 1 h [6]: ~200 nM; survival fraction ([7]; 2Gy): 10%; survival fraction ([7]; 6Gy): less than 1%; survival rate of healthy human bone marrow cells [8]: Eighty-five; inhibition of proliferation [9]: reduced proliferation; inhibition at 10 µM [10]: 40%; inhibition at 10 µM [11]: 70%; inhibition at 10 µM [12]: 40%; reduction of cellular proliferation [13]: 50%; inhibition at 10 µM [14]: 50% |
| CC1=CCCC2(C)OC2C2OC(=O)C(CN3CCCC3)C2CC1.Cl (centres unmarked) [11S, 11,13-Dihydro,13-(pyrrolidin-1-yl)parthenolide hydrochloride] | 10 μM, 85% |  |
| 11S,11,13-Dihydro,13-(4-methylpiperidin-1-yl)parthenolide [Compound 4MePipPT] | 10 μM, 83% |  |
| 11S,11,13-Dihydro,13-methylbutyl aminoparthenolide | 10 μM, 68% |  |
| CNC[C@H]1C(=O)O[C@H]2[C@H]1CC/C(C)=C/CC[C@@]1(C)O[C@@H]21 [11S,11,13-Dihydro,13-methylaminoparthenolide] | 10 μM, 4% |  |
| C=C1CCC2C(CN3CCCCC3)C(=O)OC2C2C(=C)CCC12 (centres unmarked) [11H, 13-(N-Piperidine)-dehydrocostuslactone] | 10 μM, 14% |  |
| C=C1CCC2C(CNCCC)C(=O)OC2C2C(=C)CCC12 (centres unmarked) [11H, 13-(N-Propylamino)-dehydrocostuslactone] | 10 μM, 24% |  |
| C/C1=C\CC[C@@]2(C)O[C@H]2[C@H]2OC(=O)[C@H](CN3CCN(C)CC3)[C@@H]2CC1 [Compound 4MePizPT, 11S,11,13-Dihydro,13-(4-methylpiperazin-1-yl)parthenolide] | 10 μM, 7% |  |
| CCNCC1C(=O)OC2C1CCC(C)=CCCC1(C)OC21 (centres unmarked) [11S,11,13-Dihydro,13-ethylaminoparthenolide] | 10 μM, 2% |  |
| C=C1CCC2C(CN(C)C)C(=O)OC2C2C(=C)CCC12 (centres unmarked) [11H, 13-(N,N-Dimethylamino)-dehydrocostuslactone] | 10 μM,12% |  |
| 11S, 11,13-Dihydro,13-(4-methylpiperidin-1-yl)parthenolide hydrochloride | 10 μM, 62% |  |
| 11S,11,13-Dihydro,13-(tert-butylamino)parthenolide [tBAPT] | 10 μM, 20% |  |
| 11S,11,13-Dihydro,13-methyl pentyl aminoparthenolide | 10 μM, 45% |  |
| C=C1CCC2C(CN(CC)Cc3ccccc3)C(=O)OC2C2C(=C)CCC12 (centres unmarked) [11H, 13-(N-Ethyl-N-benzyl)-dehydrocostuslactone] | 10 μM, 13% |  |
| C=C1CCC2C(CN(C)CCC)C(=O)OC2C2C(=C)CCC12 (centres unmarked) [11H, 13-(N-Methyl-N-propylamino)-dehydrocostuslactone] | 10 μM, 1% |  |
| C=C1CCC2C(CN3CCCC3)C(=O)OC2C2C(=C)CCC12 (centres unmarked) [11H, 13-(N-Pyrrolidine)-dehydrocostuslactone] | 10 μM, 20% |  |
| C=CCN(CC=C)CC1C(=O)OC2C1CCC(=C)C1CCC(=C)C12 (centres unmarked) [11H, 13-(N-Diallyl)-dehydrocostuslactone] | 10 μM, 2% |  |
| C=C1CCC2C(CN(C)CCCCC)C(=O)OC2C2C(=C)CCC12 (centres unmarked) [11H, 13-(N-Methyl-N-pentylamino)-dehydrocostuslactone] | 10 μM, 0% |  |
| CC1=CCCC2(C)OC2C2OC(=O)C(CNC3CC3)C2CC1 (centres unmarked) [11S,11,13-Dihydro,13-cyclopropylaminoparthenolide] | 10 μM, −6% |  |
| C=C1CCC2C(CN3CCOCC3)C(=O)OC2C2C(=C)CCC12 (centres unmarked) [11H, 13-(N-Morpholine)-dehydrocostuslactone] | 10 μM, 10% |  |
| C=C1CCC2C(CN(C)CCCC)C(=O)OC2C2C(=C)CCC12 (centres unmarked) [11H, 13-(N-Butyl-N-methylamino)-dehydrocostuslactone] | 10 μM, 8% |  |
